# Paper PMC12214536 (Nature Communications, 2025)
# System: A. fumigatus OE::sltA
# Type: cell-based, Aspergillus fumigatus
Substance,susceptibility of the sltA overexpression strain compared to wild-type,more tolerance of the sltA overexpression strain compared to wild-type [%]
caspofungin,comparable susceptibility to CAS,
colistin,,15
